Experimental data reported in paper PMC12361511 (The EMBO Journal, 2025).

Key:
PPP2R1A [1] = biological target: T1, PPP2R1A (Mus musculus, UniProt Q76MZ3); experiment: thermal shift (DSF, SYPRO Orange); format: binding; settings: 5 µM protein, 10 mM NaH2PO4 pH 6.0, 25 mM NaCl, 1 mM β-mercaptoethanol; destabilising
T1 construct: full length, C-terminal 6xHis, E. coli (BL-21 or Arctic Express), about 65 kDa, isolated subunit; 893-PAL is the native protein in mouse FL5.12 / mPCE cells

KPNB1.1 [2] = biological target: T2, KPNB1.1 (Homo sapiens, UniProt Q14974); experiment: thermal shift (DSF, SYPRO Orange); format: binding; settings: 5 µM protein, 10 mM NaH2PO4 pH 6.0, 25 mM NaCl, 1 mM β-mercaptoethanol; destabilising
T2 construct: amino acids 1-442 (N-terminal half), N-terminal 10xHis, codon-optimized, E. coli, about 44 kDa
T2 sequence (Q14974 1-442): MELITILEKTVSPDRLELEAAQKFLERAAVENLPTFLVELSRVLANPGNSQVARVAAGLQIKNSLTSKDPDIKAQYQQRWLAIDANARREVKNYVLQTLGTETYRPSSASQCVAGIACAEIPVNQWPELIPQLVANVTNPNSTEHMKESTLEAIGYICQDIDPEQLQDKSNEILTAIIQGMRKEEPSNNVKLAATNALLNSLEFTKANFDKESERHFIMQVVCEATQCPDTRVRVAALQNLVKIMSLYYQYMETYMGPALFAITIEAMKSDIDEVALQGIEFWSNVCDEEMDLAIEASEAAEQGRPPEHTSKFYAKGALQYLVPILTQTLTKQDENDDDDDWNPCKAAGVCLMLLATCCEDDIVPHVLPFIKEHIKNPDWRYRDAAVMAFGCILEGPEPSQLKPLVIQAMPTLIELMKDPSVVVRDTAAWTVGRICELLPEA

KPNB1.1 [3] = biological target: T2, KPNB1.1; experiment: thermal shift (DSF, SYPRO Orange); also CD; format: binding; settings: 5 µM protein, 10 mM NaH2PO4 pH 6.0, 25 mM NaCl, 1 mM β-mercaptoethanol; destabilising, reversible on dialysis
PPP2R1A [4] = biological target: T1, PPP2R1A; experiment: thermal shift (DSF, SYPRO Orange); also CD; format: binding; settings: 5 µM protein, 10 mM NaH2PO4 pH 6.0, 25 mM NaCl, 1 mM β-mercaptoethanol; destabilising, reversible on dialysis
FL5.12 = experiment: cells; design: cytotoxicity / viability IC50 in FL5.12 cells at 48 h; settings: Mus musculus, FL5.12, 48 h

T1 sequence (Q76MZ3 2-589): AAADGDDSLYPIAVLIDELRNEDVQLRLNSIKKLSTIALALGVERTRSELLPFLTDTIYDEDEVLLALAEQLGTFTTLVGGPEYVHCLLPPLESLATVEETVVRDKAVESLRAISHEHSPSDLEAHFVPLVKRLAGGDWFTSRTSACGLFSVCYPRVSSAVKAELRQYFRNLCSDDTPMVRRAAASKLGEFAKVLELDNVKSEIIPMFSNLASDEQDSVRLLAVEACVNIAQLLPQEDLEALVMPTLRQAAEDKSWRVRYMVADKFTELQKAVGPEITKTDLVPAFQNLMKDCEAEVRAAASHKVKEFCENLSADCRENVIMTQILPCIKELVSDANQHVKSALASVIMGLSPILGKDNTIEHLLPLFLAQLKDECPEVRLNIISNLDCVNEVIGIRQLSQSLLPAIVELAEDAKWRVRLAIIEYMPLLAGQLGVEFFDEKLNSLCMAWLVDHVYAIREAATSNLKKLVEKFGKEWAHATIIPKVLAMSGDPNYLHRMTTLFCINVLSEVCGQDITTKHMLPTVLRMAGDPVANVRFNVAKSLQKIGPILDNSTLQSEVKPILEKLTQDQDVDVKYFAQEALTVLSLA

**Q.** Which results are given for `CCCCCCCCc1ccc(CCC(N)(CO)CO)cc1` [FTY720]?
**A.** dTm (PPP2R1A [1]): SH-BC-893, FTY720, and the natural sphingolipid phytosphingosine reduced rather than increased the Tm of both; dTm (KPNB1.1 [2]): SH-BC-893, FTY720, and the natural sphingolipid phytosphingosine reduced rather than increased the Tm of both

**Q.** `CCCCCCCCc1ccc([C@H]2CCN[C@@H]2CO)cc1` [SH-BC-893] was tested. Which dTm (KPNB1.1 [3]) did it give?
**A.** SH-BC-893, FTY720, and the natural sphingolipid phytosphingosine reduced rather than increased the Tm of both

**Q.** And the dTm (PPP2R1A [4])?
**A.** SH-BC-893, FTY720, and the natural sphingolipid phytosphingosine reduced rather than increased the Tm of both

**Q.** What about the IC50 (FL5.12) of the same molecule?
**A.** 2000 nM

**Q.** What does the source list for `CCCCCCCCCCCCC/C=C/[C@@H](O)[C@H](CO)N(C)C` [dimethylsphingosine]?
**A.** dTm (PPP2R1A [1]): safingol and dimethylsphingosine (DMS) induced conformational changes in PPP2R1A and KPNB1; dTm (KPNB1.1 [2]): safingol and dimethylsphingosine (DMS) induced conformational changes in PPP2R1A and KPNB1

**Q.** `CCCCCCCCCCCCCC[C@@H](O)[C@@H](O)[C@@H](N)CO` [phytosphingosine] was tested. Which IC50 (FL5.12) did it give?
**A.** 3200 nM

**Q.** And the dTm (PPP2R1A [1])?
**A.** SH-BC-893, FTY720, and the natural sphingolipid phytosphingosine reduced rather than increased the Tm of both

**Q.** And the dTm (KPNB1.1 [2])?
**A.** SH-BC-893, FTY720, and the natural sphingolipid phytosphingosine reduced rather than increased the Tm of both

**Q.** How did the dTm (PPP2R1A [1]) turn out when `CCCCCCCCCCCCCCC[C@H](O)[C@@H](N)CO` [safingol] was run?
**A.** safingol and dimethylsphingosine (DMS) induced conformational changes in PPP2R1A and KPNB1

**Q.** What about the dTm (KPNB1.1 [2]) of the same molecule?
**A.** safingol and dimethylsphingosine (DMS) induced conformational changes in PPP2R1A and KPNB1

**Q.** `CCCCCCCCCCCCC/C=C/[C@@H](O)[C@@H](N)CO` [sphingosine] was tested. Which dTm (PPP2R1A [1]) did it give?
**A.** sphingosine triggered conformational changes in both PPP2R1A and KPNB1

**Q.** What about the dTm (KPNB1.1 [2]) of the same molecule?
**A.** sphingosine triggered conformational changes in both PPP2R1A and KPNB1
